Key:
[1] = tested on: LNCaP prostate tumour cells; experiment: Cell proliferation, xCelligence RTCA; type: cell-based, human
Protocol: (§1) Compound 75b was tested in a proliferation assay in cell culture as described in the following. Thus, compound 75b (alternatively referred to as “KMI95423411”) was added to a final concentration of 30 μM (in the controls, DMSO as added) to cells of the following cell lines: LNCaP, SW-480, A549, MDA-MB-468 and HepG2, and the cells were cultured in the presence of inhibitor or DMSO. At the time points indicated in FIG. 15, the cells were seeded in E-plates and the cell proliferation was determined using the xCelligence RTCA system (Roche) as described below.
(§2) Cell proliferation, migration and invastion were determined using the X-Celligence RTCA system (Roche). pLenti-LacZ, pLenti-KMT9α, pLenti-KMT9α(N122A), pLenti-KMT9α(Y125A) pLenti-ETF1, pLenti-shLaZ, and pLenti-shKMT9α constructs were used to produce recombinant lentiviruses to infect LNCaP and PC-3M cells as described in Metzger et al., 2005. For real-time recording of LNCaP, LNCaP-abl, LNCaP-abl EnzaR, and C4-2B cell proliferation, 20000 cells/well were seeded in 16 well E-plates (Roche). For PC-3M, 2500 cells/well were used. For DuCaP EnzaR, LAPC4 and LAPC4 EnzaR, 40000 cells/well were used. Cells were transfected with the indicated siRNAs in presence of Dharmafect 1 (LNCaP-abl, LAPC4, LAPC4 EnzaR; Dharmacon), Dharmafect 2 (LNCaP, PC-3M), or RNAiMAx (C4-2B, LNCaP-abl EnzaR, DuCaP EnzaR; Caco-2, HT-29, SK-N-SH, SW620, SW480, HT-29, HT-115, HCT116 p53+/+ and HCT p53−/−; Life Technologies) 24 h before seeding in E-plates. Cell indices were automatically recorded every 15 minutes. Relative velocities represent the change of the cell index over time. The sequences of the siRNAs (Stealth RNAi™ siRNAs; Life Technologies) used in the experiments are as following: siCtrl: […]

[2] = biological target: recombinant KMT9 (C21orf127/TRMT112) (Homo sapiens (Human), UniProt Q9Y5N5); experiment: Histone H4 methylation assay with SAM[3H], autoradiography; type: biochemical; conditions: histone H4, SAM[3H]
Chain of recombinant KMT9 (C21orf127/TRMT112) (Q9Y5N5 whole entry): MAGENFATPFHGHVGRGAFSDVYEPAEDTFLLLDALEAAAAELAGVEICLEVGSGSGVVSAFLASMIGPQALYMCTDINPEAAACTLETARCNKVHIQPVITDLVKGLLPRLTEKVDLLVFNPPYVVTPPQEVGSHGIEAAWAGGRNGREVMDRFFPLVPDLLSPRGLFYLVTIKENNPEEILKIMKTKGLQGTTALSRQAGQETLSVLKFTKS
Chain of recombinant KMT9 (C21orf127/TRMT112) (Q9UI30 whole entry partner): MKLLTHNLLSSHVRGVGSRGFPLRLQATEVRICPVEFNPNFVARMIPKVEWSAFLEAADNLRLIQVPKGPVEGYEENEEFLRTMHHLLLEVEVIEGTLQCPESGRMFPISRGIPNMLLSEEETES
Protocol: FIG. 1 C21orf127/TRMT112 methylates histone H4 at K12. (A to C) Methylation assays. (A) Histone H4, H3, H2A, H2B, and H1 were incubated with SAM[^3H] in the absence or presence of recombinant C21orf127/TRMT112. (B) Wild-type or mutant histone H4 were incubated with SAM[3H] in the presence of recombinant C21orf127/TRMT112. Proteins were stained by Ponceau red. […] (C) Histone H4 was incubated with C21orf127/TRMT112, SAM[^3H], and the SAM competitive inhibitor sinefungin as indicated. Proteins were stained by Ponceau red.
FIG. 9. […] Histone H4 (2 μg) was incubated with SAM[3H] in the presence of recombinant KMT9 (KMT9α and KMT90) and the three afore-mentioned inhibitors as indicated.
It was tested in this example whether the known DOT1L-inhibitors EPZ5676, SGC0946 and EPZ004777 (which are commercially available) are capable of inhibiting KMT9. To this aim, histone H4 was incubated with SAM[^3H] in the presence of recombinant KMT9 (provided in the form of the heterodimer of KMT9α and KMT90) and the three afore-mentioned inhibitors.
Four to eight μg of purified recombinant His-C21orf127, His-C21orf127/TRMT112, His-C21orf127(D103A)/TRMT112, His-C21orf127(N122A)/TRMT112, His-C21orf127(Y125A)/TRMT112, His-TRMT112, WBSCR22/TRMT112, His-TRMT11, His-TRMT12, His-KIAA1456, His-TRMT5, His-METTL27, His-METTL21A and His-METTL21B were incubated either with 4 μg core histones or 2 μg of histones H4, H3, H2A, H2B, H1 (BPS Bioscience), histone H4K12A, or His-ETF1 as indicated in methylation buffer (10 mM Tris-HCl pH 7.6, 50 mM KCl, 10 mM Mg(OAc)2, 1 mM DTT) supplemented as indicated with 1.5 μM SAM or 1.5 μl of radioactively labelled [^3H]SAM for 60 min (METTL21A: 300 minutes, METTL21B: 18 h) at 30° C. For mass spectrometry analysis, 2 μg of histone H4 were incubated overnight with 2 μg of His-C21orf127/TRMT112 in presence of SAM, heavy SAM, or SAM/heavy SAM mixture. The reaction mixture was analysed by autoradiography, Western blotting, or mass spectrometry.

[3] = tested on: SW-480 colorectal cancer cells; experiment: Cell proliferation, xCelligence RTCA; type: cell-based, human; conditions: final concentration of 30 μM, vs DMSO
Protocol: as §1, §2

[4] = tested on: MDA-MB-468 breast cancer cells; experiment: Cell proliferation, xCelligence RTCA; type: cell-based; conditions: final concentration of 30 μM, vs DMSO
Protocol: as §1, §2

HepG2 cells = experiment: Cell proliferation, xCelligence RTCA; type: cell-based; conditions: final concentration of 30 μM, vs DMSO; KMT9 non-responsive cells
Protocol: as §1, §2

A549 lung tumour cells = experiment: Cell proliferation, xCelligence RTCA; type: cell-based; conditions: final concentration of 30 μM, vs DMSO
Protocol: as §1, §2

TRMT112 = TRMT112 (Homo sapiens (Human), UniProt Q9UI30); experiment: Isothermal titration calorimetry (ITC) SAM binding; conditions: monomeric TRMT112
Chain of TRMT112 (Q9UI30 whole entry): as the sequence (Q9UI30 whole entry partner) above
Protocol: (§3) ITC experiments were performed at 20° C. with a MicroCal VP-ITC microcalorimeter (Malvern). […] ITC data were analysed and fitted with one-site binding model by using Origin 7.0.

C21orf127 = C21orf127 (Homo sapiens (Human), UniProt Q9Y5N5); experiment: Isothermal titration calorimetry (ITC) SAM binding; conditions: monomeric C21orf127
Chain of C21orf127 (Q9Y5N5 whole entry): as the sequence (Q9Y5N5 whole entry) above
Protocol: as §3

C21orf127/TRMT112 = C21orf127/TRMT112 (Homo sapiens (Human), UniProt Q9Y5N5); experiment: Isothermal titration calorimetry (ITC) SAM binding; conditions: 20° C.
Chain of C21orf127/TRMT112 (Q9Y5N5 whole entry): as above
Chain of C21orf127/TRMT112 (Q9UI30 whole entry partner): as the sequence (Q9UI30 whole entry partner) above
Protocol: as §3

C21orf127(D103)/TRMT112 = C21orf127(D103)/TRMT112 (Homo sapiens (Human), UniProt Q9Y5N5, D103A); experiment: Isothermal titration calorimetry (ITC) SAM binding; conditions: mutant heterodimer
Chain of C21orf127(D103)/TRMT112 (Q9Y5N5 whole entry D103A): as the sequence (Q9Y5N5 whole entry) above, with D103A counted along it
Chain of C21orf127(D103)/TRMT112 (Q9UI30 whole entry partner): as the sequence (Q9UI30 whole entry partner) above
Protocol: as §3

SET8 = SET8 (Homo sapiens (Human), UniProt Q9NQR1); experiment: Methyltransferase panel, 10-dose IC50 mode; type: biochemical; conditions: Substrate: Nucleosomes; 1 μM SAM; read-out: Control IC50*
Chain of SET8 (Q9NQR1 whole entry): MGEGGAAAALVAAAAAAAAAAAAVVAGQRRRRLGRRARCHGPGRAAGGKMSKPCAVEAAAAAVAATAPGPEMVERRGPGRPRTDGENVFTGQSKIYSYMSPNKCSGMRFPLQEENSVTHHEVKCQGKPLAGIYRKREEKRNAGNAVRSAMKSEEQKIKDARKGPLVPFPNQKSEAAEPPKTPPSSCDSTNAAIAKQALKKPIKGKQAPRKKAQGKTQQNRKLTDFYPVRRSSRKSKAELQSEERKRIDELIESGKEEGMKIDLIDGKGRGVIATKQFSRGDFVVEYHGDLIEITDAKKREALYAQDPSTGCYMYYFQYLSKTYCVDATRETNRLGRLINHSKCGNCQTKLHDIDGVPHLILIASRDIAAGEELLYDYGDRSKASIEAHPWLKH
Protocol: (§4) Compound 72b was further tested against a plurality of methyltransferases as described in the following. […] Reactions were carried out at 1 μM SAM. Curve fits were performed where the enzyme activities at the highest concentration of compounds were less than 65%. […] Compound 72b is referred to as KMI9542321 in the table below.

PRDM9 = PRDM9 (Homo sapiens (Human), UniProt Q9NQV7); experiment: Methyltransferase panel, 10-dose IC50 mode; type: biochemical; conditions: Substrate: Histone H3; 1 μM SAM; read-out: Control IC50*
Chain of PRDM9 (Q9NQV7 whole entry): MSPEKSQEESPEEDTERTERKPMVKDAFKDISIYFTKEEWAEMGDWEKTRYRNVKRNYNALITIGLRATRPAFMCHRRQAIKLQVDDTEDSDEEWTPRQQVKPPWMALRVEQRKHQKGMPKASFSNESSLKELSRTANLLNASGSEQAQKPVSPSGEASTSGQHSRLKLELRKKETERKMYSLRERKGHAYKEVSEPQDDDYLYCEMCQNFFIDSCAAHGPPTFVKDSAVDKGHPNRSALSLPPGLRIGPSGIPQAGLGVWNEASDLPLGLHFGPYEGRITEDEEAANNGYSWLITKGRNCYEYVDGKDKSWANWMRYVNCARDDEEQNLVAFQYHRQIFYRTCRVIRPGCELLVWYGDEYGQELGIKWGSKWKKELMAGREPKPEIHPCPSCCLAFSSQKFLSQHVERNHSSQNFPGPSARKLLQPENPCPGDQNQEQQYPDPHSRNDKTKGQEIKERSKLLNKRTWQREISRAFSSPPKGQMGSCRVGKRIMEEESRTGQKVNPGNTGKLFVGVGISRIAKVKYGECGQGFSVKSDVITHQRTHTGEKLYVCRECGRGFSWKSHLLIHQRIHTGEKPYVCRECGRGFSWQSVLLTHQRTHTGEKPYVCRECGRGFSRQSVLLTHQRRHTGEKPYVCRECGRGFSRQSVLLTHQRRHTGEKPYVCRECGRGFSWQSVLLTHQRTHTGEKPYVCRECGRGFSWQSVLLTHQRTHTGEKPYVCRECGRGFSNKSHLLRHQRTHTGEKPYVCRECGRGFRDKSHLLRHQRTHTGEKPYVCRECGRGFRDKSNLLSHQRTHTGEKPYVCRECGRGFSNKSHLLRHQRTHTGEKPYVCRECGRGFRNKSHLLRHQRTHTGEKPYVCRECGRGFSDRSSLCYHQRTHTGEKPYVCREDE
Protocol: as §4

NSD3 = NSD3 (Homo sapiens (Human), UniProt Q9BZ95); experiment: Methyltransferase panel, 10-dose IC50 mode; type: biochemical; conditions: Substrate: Nucleosomes; 1 μM SAM; read-out: Control IC50*
Chain of NSD3 (Q9BZ95 whole entry): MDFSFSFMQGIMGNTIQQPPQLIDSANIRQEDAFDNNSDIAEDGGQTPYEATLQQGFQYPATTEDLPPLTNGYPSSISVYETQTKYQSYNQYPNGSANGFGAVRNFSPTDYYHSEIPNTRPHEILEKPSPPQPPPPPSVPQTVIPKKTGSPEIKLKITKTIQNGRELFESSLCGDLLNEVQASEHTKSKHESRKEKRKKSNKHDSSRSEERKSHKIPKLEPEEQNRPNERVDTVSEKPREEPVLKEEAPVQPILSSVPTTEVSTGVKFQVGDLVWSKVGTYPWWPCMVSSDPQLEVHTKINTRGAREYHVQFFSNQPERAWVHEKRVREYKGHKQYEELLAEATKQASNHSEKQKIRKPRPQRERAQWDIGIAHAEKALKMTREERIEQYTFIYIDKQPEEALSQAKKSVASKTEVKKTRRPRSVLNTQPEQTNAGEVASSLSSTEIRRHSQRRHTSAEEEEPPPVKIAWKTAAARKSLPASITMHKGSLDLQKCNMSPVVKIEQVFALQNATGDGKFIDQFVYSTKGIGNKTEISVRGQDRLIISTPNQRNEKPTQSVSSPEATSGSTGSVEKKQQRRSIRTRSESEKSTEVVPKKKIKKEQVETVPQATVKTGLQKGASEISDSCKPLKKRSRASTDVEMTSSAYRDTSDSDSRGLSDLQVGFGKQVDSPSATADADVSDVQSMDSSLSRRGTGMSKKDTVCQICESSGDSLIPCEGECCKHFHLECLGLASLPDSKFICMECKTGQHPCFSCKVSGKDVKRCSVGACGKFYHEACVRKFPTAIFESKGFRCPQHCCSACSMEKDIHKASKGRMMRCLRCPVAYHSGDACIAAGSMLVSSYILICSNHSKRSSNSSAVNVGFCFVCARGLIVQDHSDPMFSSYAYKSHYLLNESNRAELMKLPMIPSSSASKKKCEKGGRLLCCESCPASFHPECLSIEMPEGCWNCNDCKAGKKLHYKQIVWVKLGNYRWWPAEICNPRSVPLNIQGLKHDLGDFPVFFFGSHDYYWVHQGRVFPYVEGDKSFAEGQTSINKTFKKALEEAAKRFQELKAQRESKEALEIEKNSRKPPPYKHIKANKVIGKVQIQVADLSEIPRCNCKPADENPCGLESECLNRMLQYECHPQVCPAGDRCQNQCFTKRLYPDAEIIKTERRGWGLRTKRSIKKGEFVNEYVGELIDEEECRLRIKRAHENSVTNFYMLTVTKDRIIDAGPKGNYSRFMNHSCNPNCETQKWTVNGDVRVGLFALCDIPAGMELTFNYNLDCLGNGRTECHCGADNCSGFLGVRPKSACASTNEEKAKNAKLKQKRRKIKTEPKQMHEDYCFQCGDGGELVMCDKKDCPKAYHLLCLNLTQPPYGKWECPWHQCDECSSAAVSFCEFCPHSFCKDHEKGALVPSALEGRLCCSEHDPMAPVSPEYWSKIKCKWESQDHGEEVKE
Protocol: as §4

ASH1L = ASH1L (Homo sapiens (Human), UniProt Q9NR48); experiment: Methyltransferase panel, 10-dose IC50 mode; type: biochemical; conditions: Substrate: Nucleosomes; 1 μM SAM; read-out: Control IC50*
Protocol: as §4

[5] = tested on: LAPC4 EnzaR xenograft tumours; experiment: Growth of xenograft tumours in NOD/SCID mice; type: in vivo; conditions: castrated mice, subcutaneous, vs miCtrl
Source text: (§5) It was investigated whether KMT9α loss might affect tumour growth in mice. Therefore, PC-3M and LNCaP cells were infected with lentivirus driving expression of either miRNA control (miRNA Ctrl) or miRNA against KMT9α (miRNA KMT9α) and implanted subcutaneously in the flank of immunocompromised mice. […] To investigate whether knockdown of KMT9α also blocks growth of enzalutamide-resistant tumours, LAPC4 EnzaR miCtrl and miKMT9α cells were implanted subcutaneously in the flank of immunocompromised, castrated mice.
(§6) pLenti6-miRNA Control and pLenti6-miRNA KMT9α constructs were used to produce recombinant lentiviruses to infect LNCaP, PC-3M and LAPC4 EnzaR cells as described^26. Five-week-old male severe combined immunodeficient mice were purchased from Charles River Laboratories. For tumour inoculation 5×10^6 LNCaP, 2×10^6 PC-3M, and 5×10^6 LAPC4 EnzaR cells infected with pLenti6-miRNA Control or pLenti6-miRNA KMT9α constructs were injected in NOD/SCID mice, respectively. Mice were castrated one week before injection of LAPC4 EnzaR. Cells were resuspended in 100 μl RPMI1640 mixed with 100 μl Matrigel (BD Biosciences) on ice and administered subcutaneously in the flank of each animal. The tumour size was determined by calliper measurements two times a week^24. Tumour volumes were calculated using the formula 4/3×π×r3. All experiments were performed according to the German Animal Protection Law with permission from the responsible local authorities.

LNCaP xenograft tumours = experiment: Growth of xenograft tumours in NOD/SCID mice; type: in vivo; conditions: cells infected with lentivirus, subcutaneous, vs miRNA Ctrl
Source text: as §5, §6

PC-3M xenograft tumours = experiment: Growth of xenograft tumours in NOD/SCID mice; type: in vivo; conditions: cells infected with lentivirus, subcutaneous, vs miRNA Ctrl
Source text: as §5, §6

siKMT9α-3′UTR: siRNA that targets the three-prime untranslated region of the endogenously transcribed KMT9α mRNA (SEQ ID NO: 4) (GGAACUACAUUAGACUUAGUGGAAA; listed as RNA, chemistry not given here)
proliferation ([1]; LNCaP-LacZ control cells, vs siCtrl): strongly impaired

CC(C)N(CCCNC(=O)Nc1ccc(C(C)(C)C)cc1)C[C@H]1O[C@@H](n2cc(Br)c3c(N)ncnc32)[C@H](O)[C@@H]1O [SGC0946]
HMT activity of KMT9 (histone H4 methylation) [2]: do not inhibit

CNc1ncnc2c1ccn2[C@@H]1C[C@H](CN(CCCNCCc2cccc(Oc3ccccc3)c2)CC[C@H](N)C(=O)OC)[C@@H](O)[C@H]1O [Compound 75b, methyl (S)-2-amino-4-((((1R,2R,3S,4R)-2,3-dihydroxy-4-(4-(methylamino)-7H-pyrrolo[2,3-d]pyrimidin-7-yl)cyclopentyl)methyl)(3-((3-phenoxyphenethyl)amino)propyl)amino)butanoate]
proliferation ([1]; final concentration of 30 μM, vs DMSO): blocks proliferation | proliferation [3]: blocks proliferation | proliferation [4]: blocks proliferation | proliferation (HepG2 cells): does not affect proliferation | proliferation (A549 lung tumour cells): blocks proliferation

C[S+](CC[C@H](N)C(=O)[O-])C[C@H]1O[C@@H](n2cnc3c(N)ncnc32)[C@H](O)[C@@H]1O (stereo partly drawn) [SAM, S-adenosyl-methionine]
SAM binding (TRMT112): no SAM binding | SAM binding (C21orf127): no SAM binding | Kd (C21orf127/TRMT112): 2500 nM | SAM binding (C21orf127(D103)/TRMT112): no SAM binding

Nc1ncnc2c1ncn2[C@@H]1O[C@H](C[C@@H](N)CC[C@H](N)C(=O)O)[C@@H](O)[C@H]1O [sinefungin]
HMT activity of KMT9 (histone H4 methylation) [2]: blocked

Cc1ccc(NC2=CC(=O)c3sc(C)nc3C2=O)cc1 [Ryuvidine]
IC50 (SET8): 775 nM

CC(C)N(C[C@H]1O[C@@H](n2cnc3c(N)ncnc32)[C@H](O)[C@@H]1O)[C@H]1C[C@@H](CCc2nc3cc(C(C)(C)C)ccc3[nH]2)C1 [EPZ5676]
HMT activity of KMT9 (histone H4 methylation) [2]: do not inhibit

CC(C)N(CCCNC(=O)Nc1ccc(C(C)(C)C)cc1)C[C@H]1O[C@@H](n2ccc3c(N)ncnc32)[C@H](O)[C@@H]1O [EPZ004777]
HMT activity of KMT9 (histone H4 methylation) [2]: do not inhibit

CN1C(=O)[C@@]23C[C@]4([C@]56C[C@@]78SS[C@@](CO)(C(=O)N7[C@H]5Nc5ccccc56)N(C)C8=O)c5ccccc5N[C@@H]4N2C(=O)[C@]1(CO)SS3 [Chaetocin]
IC50 (PRDM9): 354 nM | IC50 (NSD3): 58.8 nM | IC50 (ASH1L): 27.4 nM

B1: miRNA KMT9α: miRNA against KMT9α expressed from lentivirus pLenti6-miRNA KMT9α (SEQ ID NO: 1, 2) (nucleic acid)
chain 1: TGCTGATGTGAACTTTGTTACAGCGTGTTTTGGCCACTGACTGACACGCTGTAAAAGTTCACAT
chain 2: CCTGATGTGAACTTTTACAGCGTGTCAGTCAGTGGCCAAAACACGCTGTAACAAAGTTCACATC
growth and final weight of xenografts [5]: strongly reduced | growth and final weight of xenografts (LNCaP xenograft tumours): strongly reduced | growth and final weight of xenografts (PC-3M xenograft tumours): strongly reduced

Source: patent US12357680B2, “Inhibition of histone methyl transferases to treat cancer” (Albert-Ludwigs-Universitat Freiburg, priority 2018, dated 2025)
